Values quoted from earlier work, collected in US5478816A, “Liquid vitamin formulations containing vitamin D esters” (Bristol-Myers Squibb Company, priority 1993, dated 1995).
Where two headings read alike, the source gives them in different places.

Details: cited from earlier work

| Compound | stability (at a mid-pH) | stability (in an alkaline medium or in the presence of light and air) | stability (in an aqueous environment) | stability (in the presence of minerals) | stability (in corn oil, propylene glycol, and milk) | stability (in propylene glycol when diluted in water) |
| --- | --- | --- | --- | --- | --- | --- |
| vitamin D | stable | slowly destroyed | unstable | unstable | – | – |
| C=C1CC[C@H](O)C/C1=C/C=C1\CCC[C@]2(C)[C@@H]([C@H](C)/C=C/[C@H](C)C(C)C)CC[C@@H]12 [Vitamin D2] | – | – | – | – | stable | deteriorate |
